The values below come from ChEMBL document CHEMBL3351611, “Diversity-oriented synthesis-facilitated medicinal chemistry: toward the development of novel antimalarial agents” (J Med Chem, 2014).

One data set deals with Plasmodium berghei. The experiment in a line: Antimalarial activity against Plasmodium berghei ANKA infected in CD1 Swiss albino mouse assessed as reduction in parasitemia level at 100 mg/kg, ip dosed seven times every 12 hrs over 3 days relative to control. The format is functional. As to conditions: route intraperitoneal.
For the next data set, the system named is Plasmodium falciparum. The experiment in a line: Antimalarial activity against Plasmodium falciparum Dd2 assessed as inhibition of parasite proliferation. It is filed as functional.
A short description of data set [1]: Lipophilicity, log D of the compound by HPLC method. The format is physicochemical.
Data set [2] can be described thus: Solubility in PBS buffet at pH 7.4 at 100 uM incubated for 18 hrs by UPLC-MS method. The format is physicochemical. As to conditions: buffer, pH 7.4, 18 h, 100 µM.
Data set [3] can be described thus: Stability in mouse microsomes assessed as compound remaining at 1 uM after 1 hr at 37 degC by UPLC-MS method. The settings on record: read-out: Stability. It is filed as ADME, Microsome.
The target in the next data set is hERG (KCNH2) (Homo sapiens, UniProt Q12809). Nature of the data set: Displacement of [3H]astemizole from human ERG expressed in HEK293 cell membranes at 10 uM incubated for 75 mins by scintillation counting method. As to conditions: HEK293 cell membranes that express hERG, probe [3H]astemizole. On the technique in general: Displacement assays read how much labelled ligand stays bound in the presence of the test substance.
hERG (KCNH2), sequence (Q12809 whole entry): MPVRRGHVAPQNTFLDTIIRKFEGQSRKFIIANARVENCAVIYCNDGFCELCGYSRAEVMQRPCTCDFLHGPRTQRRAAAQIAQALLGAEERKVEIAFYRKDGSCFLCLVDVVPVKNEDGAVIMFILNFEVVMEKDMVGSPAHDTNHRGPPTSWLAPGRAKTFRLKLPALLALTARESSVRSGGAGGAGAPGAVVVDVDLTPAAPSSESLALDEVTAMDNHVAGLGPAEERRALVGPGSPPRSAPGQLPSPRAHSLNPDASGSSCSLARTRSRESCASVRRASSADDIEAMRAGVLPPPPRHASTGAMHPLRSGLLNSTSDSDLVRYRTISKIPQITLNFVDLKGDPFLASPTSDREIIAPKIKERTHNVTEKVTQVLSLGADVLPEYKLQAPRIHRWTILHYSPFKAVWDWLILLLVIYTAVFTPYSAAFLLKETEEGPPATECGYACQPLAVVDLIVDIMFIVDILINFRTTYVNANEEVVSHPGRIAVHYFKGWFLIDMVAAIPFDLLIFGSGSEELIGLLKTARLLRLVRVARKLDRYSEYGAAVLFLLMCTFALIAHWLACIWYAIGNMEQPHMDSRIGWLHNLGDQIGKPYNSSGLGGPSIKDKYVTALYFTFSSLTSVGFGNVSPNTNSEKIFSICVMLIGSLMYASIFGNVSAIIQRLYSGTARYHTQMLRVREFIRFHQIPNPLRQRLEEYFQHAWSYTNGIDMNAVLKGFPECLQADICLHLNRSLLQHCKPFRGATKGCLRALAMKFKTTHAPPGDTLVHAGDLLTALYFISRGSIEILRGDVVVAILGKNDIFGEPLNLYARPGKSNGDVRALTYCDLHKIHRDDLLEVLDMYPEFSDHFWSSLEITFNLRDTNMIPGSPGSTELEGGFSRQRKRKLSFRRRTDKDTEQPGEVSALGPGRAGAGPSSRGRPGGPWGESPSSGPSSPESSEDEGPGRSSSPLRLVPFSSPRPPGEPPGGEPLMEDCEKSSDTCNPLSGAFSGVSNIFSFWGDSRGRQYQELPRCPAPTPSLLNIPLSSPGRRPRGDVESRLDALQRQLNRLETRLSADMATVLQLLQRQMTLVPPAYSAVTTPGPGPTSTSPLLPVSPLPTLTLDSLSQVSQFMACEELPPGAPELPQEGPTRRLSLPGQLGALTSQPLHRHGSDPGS

Data set [4] in a line: Plasma concentration CD1 mouse at 20 mg/kg, ip dosed through cassette administration measured after 2 hrs by LC-MS/MS method. It is filed as ADME, organism-based. Details: dose 20 mg/kg, route intraperitoneal.
Data set [5] in a line: Plasma concentration in Plasmodium berghei ANKA infected CD1 Swiss albino mouse at 100 mg/kg, ip dosed seven times every 12 hrs over 3 days measured 30 mins after final dose on day 3. The format is ADME, organism-based. Details: dose 100 mg/kg, route intraperitoneal.

A word on the GI50: it is the concentration that inhibits growth by half. Usually logD stands for lipophilicity at a set pH, counting ionised and neutral species. The term solubility denotes how much of the substance goes into solution per volume. Low values mean a poorly soluble substance, high ones a readily soluble substance. As a reminder, the inhibition is the share of the control response that was lost under treatment. On to `Cc1noc(C)c1NC(=O)Nc1ccc2c(c1)C(=O)N([C@@H](C)CN(C)C)C[C@@H](C)[C@H](CN(C)S(=O)(=O)c1ccc(F)cc1)OCCCC[C@H](C)O2`, for which, in the data set on Plasmodium berghei, the “fold change (FC)” value was 2. The GI50 with Plasmodium falciparum was 4.2 nM. Also, the logD in data set [1] was determined as 2.9. Moreover, the solubility in data set [2] is greater than 100 µM. For the same molecule, in data set [3], the remaining at 1 h, 1 µM was 8%. In addition, the inhibition at 1.25 h, 10 µM on hERG (KCNH2) came out at 13%. In data set [4], this molecule showed a concentration at 2 h of 768 ng/mL. For the same molecule, in data set [5], the concentration at 0.5 h is 300 ng/mL.
